Patent publication US8883782B2, “Spiro-tetracyclic ring compounds as beta-secretase modulators and methods of use” (Amgen Inc., priority 2010, dated 2014)
Like-named read-outs stand apart in the source and are kept apart here.

Columns and labels:
[1] = target: Beta Secretase enzyme (BACE) (Homo sapiens, UniProt P56817); assay: In vitro enzymatic BACE FRET (fluorescence resonance energy transfer) assay; assay type: biochemical
Method in brief: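 Acetate buffer (0.05 M, pH 4.2), 10% DMSO final, 100 uM nonionic detergent genapol. Substrate addition (50 nM FRET peptide) initiates; one-hour incubation; Tris raises pH to neutrality before fluorescence measurement.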

[2] = system: Abeta 40 in cerebrospinal fluid (CSF) and brain; assay: In vivo inhibition of beta-secretase (Abeta 40 reduction in CSF and brain); details: rat, after 4 hrs; for inhibition in vivo at 10 mg/kg: Abeta 40, 10 mg/kg (10 mpk); for inhibition in vivo at 3 mg/kg: Abeta 40, 3 mpk
Source text: In Vivo Inhibition of Beta-Secretase
Several animal models, including mouse, rat, dog, and monkey, may be used to screen for inhibition of beta-secretase activity in vivo following administration of a test compound sample. Animals used in this invention can be wild type, transgenic, or gene knockout animals. […] A separate group of animals receive 2% hydroxypropyl methylcellulose, 1% Tween80 alone, containing no test compound, and serve as a vehicle-control group. At the end of the test period, animals are sacrificed and brain tissues, plasma or cerebrospinal fluid are collected. […] Homogenates are centrifuged at 355,000 g, 4° C. for 30 minutes. CSF or brain supernatants are then analyzed for the presence of A-beta peptide by specific sandwich ELISA assays based on ECL (Electrochemiluminescence) technology. For example, rat Abeta40 is measured using biotinylated-4G8 (Signet) as a capture antibody and Fab40 (an in-house antibody specific to the C-terminal of Abeta40) as a detection antibody.
Actual vehicles used: Oral: 2% HPMC, 1% Tween80, pH 2.2

[3] = system: Aβ40 in conditioned medium of cells stably expressing Amyloid Precursor Protein (APP); assay: In vitro BACE cell-based assay (Aβ40 in conditioned medium, sandwich ELISA)
Method in brief: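 Quantification relied on pAb40/6E10 sandwich ELISA with Europium fluorescence counts, and IC50 was fitted versus concentration.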

[4] = CSF, read-out: CSF A-beta reduction % at 10 mg/kg
[5] = brain, read-out: Brain A-beta reduction % at 10 mg/kg
[6] = average IC50, enzyme assay, read-out: BACE 1 FRET assay
[7] = Homo sapiens, HEK293, average IC50, HEK cells, read-out: HEK cell assay
[8] = Homo sapiens, HEK293, average IC50, read-out: HEK cell assay
[9] = average IC50, read-out: HEK cell assay

Beta Secretase enzyme (BACE), sequence (P56817 46-501, species assumed): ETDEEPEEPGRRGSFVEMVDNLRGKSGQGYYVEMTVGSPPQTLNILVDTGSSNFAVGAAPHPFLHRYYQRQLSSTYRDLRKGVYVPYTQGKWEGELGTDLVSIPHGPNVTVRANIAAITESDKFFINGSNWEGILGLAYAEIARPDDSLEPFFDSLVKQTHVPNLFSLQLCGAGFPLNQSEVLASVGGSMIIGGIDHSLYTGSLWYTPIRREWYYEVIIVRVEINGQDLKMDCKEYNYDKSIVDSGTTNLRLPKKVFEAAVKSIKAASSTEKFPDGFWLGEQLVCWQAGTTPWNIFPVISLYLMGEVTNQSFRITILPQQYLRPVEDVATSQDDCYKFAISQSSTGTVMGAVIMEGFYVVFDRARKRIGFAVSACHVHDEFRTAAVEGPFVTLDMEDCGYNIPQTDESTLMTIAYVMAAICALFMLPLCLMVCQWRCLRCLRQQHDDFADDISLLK

NC1=N[C@@]2(CO1)c1cc(-c3cccnc3F)c(F)cc1Oc1c(F)cc(C3=CCOCC3)cc12 (single isomer, unassigned) [Example 867]
IC50 ([1]; BACE 1 FRET assay (uM)): 0.0003 µM | inhibition in vivo at 10 mg/kg [2, 4]: 56% | inhibition in vivo at 10 mg/kg [2, 5]: 39% | IC50 ([3]; Homo sapiens, HEK293, read-out: HEK cell assay (uM), average IC50, HEK cells): 0.005 µM

NC1=N[C@@]2(CO1)c1cc(-c3cccnc3F)c(F)cc1Oc1c(F)cc(N3CCOCC3)cc12 (single isomer, unassigned) [Example 869]
IC50 [1, 6]: 0.0005 µM | inhibition in vivo at 10 mg/kg [2, 4]: 61% | inhibition in vivo at 10 mg/kg [2, 5]: 44% | IC50 [3, 7]: 0.01 µM

NC1=N[C@@]2(CS1)c1cc(-c3cccnc3F)ccc1Oc1c2cc(-c2ccnc(F)c2)nc1F (single isomer, unassigned) [Example 996]
IC50 [1, 6]: 0.0002 µM | inhibition in vivo at 10 mg/kg [2, 4]: 55% | inhibition in vivo at 10 mg/kg [2, 5]: 43% | IC50 [3, 8]: 0.013 µM

CC(C)(C)C#Cc1cnc2c(c1)[C@]1(COC(N)=N1)c1cc(-c3cncnc3)c(F)cc1O2 [Example 339, (S)-3-(3,3-dimethylbut-1-yn-1-yl)-8-fluoro-7-(pyrimidin-5-yl)-5′H-spiro[chromeno[2,3-b]pyridine-5,4′-oxazol]-2′-amine]
inhibition in vivo at 10 mg/kg [2, 4]: 56% | inhibition in vivo at 10 mg/kg [2, 5]: 29% | IC50 [3, 9]: 0.0144 µM

NC1=N[C@@]2(CO1)c1cc(-c3cccnc3F)ccc1Oc1c2cc(C2=CCCOC2)nc1F [Example 688, (5S)-3-(5,6-dihydro-2H-pyran-3-yl)-1-fluoro-7-(2-fluoro-3-pyridinyl)spiro[chromeno[2,3-c]pyridine-5,4′-[1,3]oxazol]-2′-amine]
inhibition in vivo at 3 mg/kg ([2]; CSF, read-out: CSF A-beta reduction % at 3 mpk): 74% | inhibition in vivo at 3 mg/kg ([2]; brain, read-out: Brain A-beta reduction % at 3 mpk): 75% | IC50 [3, 7]: 0.005 µM

NC1=N[C@@]2(CS1)c1cc(-c3cccnc3F)ccc1Oc1cnc(-c3ccnc(F)c3)cc12 [Example 1000, (S)-7-(2-fluoropyridin-3-yl)-3-(2-fluoropyridin-4-yl)-5′H-spiro[chromeno[2,3-c]pyridine-5,4′-thiazol]-2′-amine]
CSF A-beta reduction % at 30 mpk ([2]; CSF, Abeta 40, 30 mpk): 63% at 30 mpk | Brain A-beta reduction % at 30 mpk ([2]; brain, Abeta 40, 30 mpk): 60% at 30 mpk | IC50 [3, 8]: 0.023 µM

COCC1SC(N)=NC12c1cc(-c3cccnc3F)ccc1Oc1c(F)cc(OC)cc12 [Example 1089, (4S/R,5S)-4′-fluoro-7′-(2-fluoropyridin-3-yl)-2′-methoxy-5-(methoxymethyl)-5H-spiro[thiazole-4,9′-xanthen]-2-amine]
IC50 [1, 6]: 0.0033 µM | IC50 [3, 9]: 0.923 µM

COCC1SC(N)=N[C@@]12c1cc(-c3cccnc3F)ccc1Oc1c(F)cc(OC)cc12 (stereo partly drawn) [Example 1090, (4R)-4′-fluoro-7′-(2-fluoro-3-pyridinyl)-2′-methoxy-5-(methoxymethyl)spiro[1,3-thiazole-4,9′-xanthen]-2-amine]
IC50 [1, 6]: 2.4 µM | IC50 [3, 8]: > 10 µM

COCC1SC(N)=N[C@]12c1cc(-c3cccnc3F)ccc1Oc1c(F)cc(OC)cc12 (stereo partly drawn) [Example 1091, (4S)-4′-fluoro-7′-(2-fluoro-3-pyridinyl)-2′-methoxy-5-(methoxymethyl)spiro[1,3-thiazole-4,9′-xanthen]-2-amine]
IC50 [1, 6]: 5.07 µM | IC50 [3, 8]: > 10 µM

COC[C@H]1SC(N)=NC12c1cc(-c3cccnc3F)ccc1Oc1c(F)cc(OC)cc12 (stereo partly drawn) [Example 1092, (4S/R,5S)-4′-fluoro-7′-(2-fluoropyridin-3-yl)-2′-methoxy-5-(methoxymethyl)-5H-spiro[thiazole-4,9′-xanthen]-2-amine]
IC50 [1, 6]: 0.0057 µM | IC50 ([3]; average IC50, HEK cells, read-out: HEK cell assay): 0.498 µM

COCC1SC(N)=N[C@@]12c1cc(-c3cccnc3F)ccc1Oc1cnc(-c3ccnc(F)c3)cc12 (stereo partly drawn) [Example 1094, (5R)-7-(2-fluoro-3-pyridinyl)-3-(2-fluoro-4-pyridinyl)-5′-(methoxymethyl)spiro[chromeno[2,3-c]pyridine-5,4′-[1,3]thiazol]-2′-amine]
IC50 [1, 6]: 0.0043 µM | IC50 [3, 7]: 0.128 µM

CC1(C#Cc2cnc3c(c2)[C@@]2(COC(N)=N2)c2cc(-c4cccnc4F)c(F)cc2O3)COC1 [compound 108]
IC50 [1, 6]: 0.002 µM | IC50 [3, 8]: 0.0036 µM

(4R)-4′-fluoro-2′-methoxy-7′-(5-pyrimidinyl)spiro[1,3-thiazole-4,9′-xanthen]-2-amine [Example 215]
IC50 [1, 6]: 0.0081 µM | IC50 [3, 9]: 0.113 µM

(4S)-2′-(2-chloro-4-pyrimidinyl)-4′-fluoro-7′-(2-fluoro-3-pyridinyl)spiro[1,3-oxazole-4,9′-xanthen]-2-amine [Example 221]
IC50 [1, 6]: 0.0007 µM | IC50 [3, 9]: 0.129 µM

(4S)-2′-(((1R)-2,2-difluorocyclopropyl)methoxy)-4′-fluoro-7′-(2-fluoro-3-pyridinyl)spiro[1,3-thiazole-4,9′-xanthen]-2-amine, (4S)-2′-(((1S)-2,2-difluorocyclopropyl)methoxy)-4′-fluoro-7′-(2-fluoro-3-pyridinyl)spiro[1,3-thiazole-4,9′-xanthen]-2-amine [Example 1080]
IC50 [1, 6]: 0.0005 µM | IC50 [3, 9]: 0.047 µM

(4S)-4′-fluoro-7′-(2-fluoro-3-pyridinyl)-2′-((2R)-tetrahydro-2H-pyran-2-yl)spiro[1,3-oxazole-4,9′-xanthen]-2-amine [Example 220]
IC50 [1, 6]: 0.0016 µM | IC50 [3, 9]: 0.0128 µM

(4S)-4′-fluoro-7′-(2-fluoro-3-pyridinyl)-2′-((2S)-tetrahydro-2H-pyran-2-yl)spiro[1,3-oxazole-4,9′-xanthen]-2-amine [Example 219]
IC50 [1, 6]: 0.0009 µM | IC50 [3, 9]: 0.0062 µM

(4S)-4′-fluoro-7′-(2-fluoro-3-pyridinyl)-2′-((3R)-3-methyl-1-pyrrolidinyl)spiro[1,3-oxazole-4,9′-xanthen]-2-amine, (4S)-4′-fluoro-7′-(2-fluoro-3-pyridinyl)-2′-((3S)-3-methyl-1-pyrrolidinyl)spiro[1,3-oxazole-4,9′-xanthen]-2-amine [Example 1055]
IC50 [1, 6]: 0.0004 µM | IC50 [3, 9]: 0.033 µM

(5R)-3-bromo-7-iodospiro[chromeno[2,3-b]pyridine-5,4′-[1,3]oxazol]-2′-amine, (5S)-3-bromo-7-iodospiro[chromeno[2,3-b]pyridine-5,4′-[1,3]oxazol]-2′-amine [Example 762]
IC50 [1, 6]: 0.004 µM | IC50 [3, 9]: 0.085 µM

(5R)-7-(2,4-difluoro-3-pyridinyl)-3-(2-fluoro-4-pyridinyl)spiro[chromeno[2,3-c]pyridine-5,4′-[1,3]thiazol]-2′-amine, (5S)-7-(2,4-difluoro-3-pyridinyl)-3-(2-fluoro-4-pyridinyl)spiro[chromeno[2,3-c]pyridine-5,4′-[1,3]thiazol]-2′-amine [Example 1019]
IC50 [1, 6]: 0.0007 µM | IC50 [3, 9]: 0.033 µM

(5R)-7-bromo-3-fluoro-1-methoxyspiro[chromeno[2,3-c]pyridine-5,4′-[1,3]oxazol]-2′-amine, (5S)-7-bromo-3-fluoro-1-methoxyspiro[chromeno[2,3-c]pyridine-5,4′-[1,3]oxazol]-2′-amine [Example 846]
IC50 [1, 6]: 0.0014 µM | IC50 [3, 9]: 0.014 µM

(6R)-4-((4S)-2-amino-4′-fluoro-7′-(2-fluoro-3-pyridinyl)spiro[1,3-oxazole-4,9′-xanthen]-2′-yl)-6-methyl-5,6-dihydro-2H-pyran-2-one, (6S)-4-((4S)-2-amino-4′-fluoro-7′-(2-fluoro-3-pyridinyl)spiro[1,3-oxazole-4,9′-xanthen]-2′-yl)-6-methyl-5,6-dihydro-2H-pyran-2-one [Example 803]
IC50 [1, 6]: 0.0008 µM | IC50 [3, 9]: 0.015 µM
